In patent publication US7968532B2 (Besins Healthcare Luxembourg, priority 2003, dated 2011):
Where two headings read alike, the source gives them in different places.

Experiments:
[1] = Follow-up study: percutaneous Z-[^3H]-4-hydroxy tamoxifen or Z-[^3H]-tamoxifen on the breast before surgery; tissue, plasma, urine radioactivity; conditions: for Share of radioactivity in blood: 24 hours after percutaneous 4-hydroxy tamoxifen
Experimental: (§1) The patients received [^3H]-labeled drug applied directly on the affected breasts at specified intervals ranging from 12 hours to 7 days before surgery to excise diseased tissue. Breast tissue from three regions: the tumor, tissue immediately surrounding the tumor, and normal tissue, was excised and immediately frozen in liquid nitrogen. Additionally, plasma and urine samples were obtained at scheduled intervals and frozen until analysis.

[2] = human, in vivo; cited from earlier work
[3] = topical application
Experimental: (§2) Each participant applied the gel daily for the duration of two menstrual cycles.
(§3) On the first day of the following menstruation, treatment, which consisted of daily application of the gel over two menstrual cycles, began. Blood samples were collected 24 hours following the morning application of gel on days 7, 20 and 25 of the first and second cycles. On the last day of administration, day 25 of the second menstrual cycle, serial blood samples were collected prior to application and at 0.5, 1, 1.5, 2, 3, 4, 6, 12, 18, 24, 36, 48, and 72 hours after application of the gel.

rat liver = conditions: cited from earlier work
[4] = in vivo
Experimental: as §1

[5] = Pharmacokinetics of 4-hydroxy tamoxifen gel in healthy premenopausal women; format: in vivo, human
Experimental: as §2
At the end of a menstrual cycle, each patient received a single dose, after which serial blood samples were collected at 0, 0.5, 1, 1.5, 2, 3, 4, 6, 12, 18, 24, 36, 48, and 72 hours.
as §3

[6] = one person in Group 2 (0.5 mg/day gel, seventh day); one person in Group 1 (oral tamoxifen, fifth day); cited from earlier work

In the case of `CCC(=C(c1ccc(O)cc1)c1ccc(OCCNC)cc1)c1ccccc1` [N-Desmethyl-4-Hydroxy Tamoxifen], the “Share of radioactivity in blood” value [1] is reported as 18%.

For `CCC(=C(c1ccc(O)cc1)c1ccc(OCCN(C)C)cc1)c1ccccc1` [4-hydroxy tamoxifen, 1-[4-(2-N-dimethylaminoethoxy)phenyl]-1-(4-hydroxyphenyl)-2-phenylbut-1-ene], the “Radioactivity in excised tissue and normal breast tissue surrounding the tumor” value [2] is listed as “contained radioactivity”, the Systemic effects [3] is listed as “no detectable laboratory or clinical evidence of systemic effects” and the Rat liver carcinogen (rat liver; in vivo) is listed as “not”. For the same molecule, the “Metabolism in cytosolic and nuclear fractions of breast tissue” value [4] was “remained unmetabolized except for limited isomerization from the Z to the E form”, the “Share of radioactivity in blood” value [4] was 68% and the “Subcellular distribution in breast tissue” value [4] was “concentrated predominantly in the cytosolic and nuclear fractions of breast tissue”. The “Time of plateau of radioactivity in blood” value [4] was 4 to 6 days, the “Plasma concentration of 4-hydroxy tamoxifen, Mean ± SD (Range)” value (“Plasma concentration … Mean ± SD (Range)” for short) ([5]; 0.5 mg/day, gel 20 mg/100 g, n=12, First cycle Day 1, 0 hr) was “(0-17.2) pg/mL” and the “Plasma concentration … Mean ± SD (Range)” value ([5]; 0.5 mg/day, gel 20 mg/100 g, n=12, Second cycle, +8 days, LOQ <5 pg/mL) was “<LOQ”. The “Plasma concentration … Mean ± SD (Range)” value ([5]; 0.5 mg/day, gel 20 mg/100 g, n=12, Second cycle, +12 days (maximum)) was at most 9.09 pg/mL, the “Plasma concentration … Mean ± SD (Range)” value ([5]; 0.5 mg/day, gel 20 mg/100 g, n=12, Second cycle, +20 days) was 0 pg/mL and the “Plasma concentration … Mean ± SD (Range)” value ([5]; 1 mg/day, gel 20 mg/100 g, n=8, First cycle Day 1, 0 hr) was “(0-13.9) pg/mL”. The “Plasma concentration … Mean ± SD (Range)” value ([5]; 1 mg/day, gel 20 mg/100 g, n=8, Second cycle, +20 days, LOQ <5 pg/mL) was “<LOQ”, the “Plasma concentration … Mean ± SD (Range)” value ([5]; 1 mg/day, gel 57 mg/100 g, n=12, First cycle Day 1, 0 hr) was “(0-9.5) pg/mL” and the “Plasma concentration … Mean ± SD (Range)” value ([5]; 1 mg/day, gel 57 mg/100 g, n=12, Second cycle, +8 days) was “(0-14.8) pg/mL”. For the same molecule, the “Plasma concentration … Mean ± SD (Range)” value ([5]; 2 mg/day, gel 57 mg/100 g, n=12, First cycle Day 1, 0 hr) was “(0-0) pg/mL” and the “Plasma concentration … Mean ± SD (Range)” value ([5]; 2 mg/day, gel 57 mg/100 g, n=12, Second cycle, +12 days) was “(0-30.4) pg/mL”.

For `CC/C(=C(\c1ccccc1)c1ccc(OCCN(C)C)cc1)c1ccccc1` [tamoxifen, reference compound], the Reported side effects [6] is given as “hot flashes and mild vaginitis” and the Rat liver carcinogen (rat liver) is given as “is a potent rat liver carcinogen”.

In the case of `CCC(=C(c1ccc(O)cc1)c1ccc(O)cc1)c1ccccc1` [Bisphenol], the “Share of radioactivity in blood” value [1] is reported as 11%.

For `CC/C(=C(\c1ccc(O)cc1)c1ccc(OCCN(C)C)cc1)c1ccccc1` [Z-4-hydroxy tamoxifen], the “Percentage of radioactivity in breast tissue as Z and E isomer” value [4] was 32%.

In the case of `CC/C(=C(/c1ccc(O)cc1)c1ccc(OCCN(C)C)cc1)c1ccccc1` (single isomer, unassigned) [E isomer], the “Percentage of radioactivity in breast tissue as Z and E isomer” value ([1]; day 7 after percutaneous administration) is reported as 33%.
